Measurements taken from paper PMC10216263, “Favorable Preclinical Pharmacological Profile of a Novel Antimalarial Pyrrolizidinylmethyl Derivative of 4-amino-7-chloroquinoline with Potent In Vitro and In Vivo Activities” (Biomolecules, 2023).

Key:
[1] = system: P. falciparum TM90C2A (CQ-R); test: In vitro antimalarial activity, [3H]-hypoxanthine incorporation (LSHTM); format: cell-based; details: Plasmodium falciparum, 72 h, [3H]-hypoxanthine incorporation, mean of 3 experiments, read-out: P. falciparum IC50 nM, TM90C2A (CQ-R)
in vivo = details: CD1, mouse, po, 10 mg/kg, AUClast
[2] = system: Salmonella typhimurium TA98, TA100 and Escherichia coli WP2 uvrA; test: Bacterial Reverse Mutation Assay, overall; details: with or without rat liver S9, up to 1000 per plate
Description: (§1) using the preincubation method (30 min, 37°C) with and without phenobarbital-5,6-benzoflavone induced
(§2) MG3 was dissolved in distilled water (H2O) at
(§3) the maximum concentration of 40 mg/mL and tested in a preliminary range-finding test in all strains of
(§4) metabolic activation to determine the toxicity of the compound.

[3] = system: Escherichia coli WP2 uvrA; test: Bacterial Reverse Mutation Assay; details: with metabolic activation
Description: as §1, §2, §3, §4

[4] = system: Salmonella typhimurium TA100; test: Bacterial Reverse Mutation Assay; details: TA 100, with metabolic activation
Description: as §1, §2, §3, §4

P. falciparum 3D7 (CQ-S) = test: In vitro antimalarial activity, [3H]-hypoxanthine incorporation (LSHTM); format: cell-based; details: Plasmodium falciparum, 3D7; 72 h, [3H]-hypoxanthine incorporation, mean of 3 experiments; read-out: P. falciparum IC50 nM, 3D7 (CQ-S)
[5] = Chemical stability in incubation medium; format: physicochemical; details: 90 min at 37 °C, Leibovitz L-15 medium
Description: An automatic liquid handling system (Multiprobe II EX, Packard) was used for sampling. At 0, 10, 20, 30, 60 and 90 min, […] aliquots of the incubates were taken and added with […] of ice-cold ACN and […] of 1 µM warfarin in ACN (internal standard), and samples centrifuged at 2000 rpm for 20 min. The analysis of supernatant was conducted using LC-MS/MS. MG3 was incubated in the medium under the same conditions to evaluate the chemical stability; 7-ethoxycoumarin (7-ETC) 1 µM and 7-hydroxycoumarin (7-HC) 30 µM were utilized as positive controls for Phase I and Phase II activities. […] Half-life and CLint were determined from the concentration (counts) remaining at the different sampling points using the LC-MS/MS method. The slope was calculated using linear regression analysis of the curve (natural logarithmic area of the compound remaining against the time) and converted into the half-life (t1/2) and CLint expressed as µL/min/million cells and mL/min/kg, respectively.

hERG K+ channel = hERG K+ channel (Homo sapiens, UniProt Q12809); test: [3H]-astemizole binding assay in HEK293 cell membranes
Description: Methods for hERG interaction
Membranes were prepared from HEK293 cells stably transfected with the human ERG (ether-a-go-go related
gene; U04270) from Cytomix.
was used as radioligand. Non-specific binding was evaluated in the presence of an excess of 10 µM cold
The concentration-response curve was performed in a range from 0.03 to 30 µM (seven

[6] = Tissue distribution in rat; format: in vivo, female Sprague Dawley rats; details: single oral 120 mg/kg
Description: Female Sprague Dawley rats (Charles River, Italy) (2–4/time points) were orally administered with a single dose of 120 mg/kg of MG3 at a constant dose volume of 10 mL/kg; dose and gender were selected based on previous toxicological studies. Two female rats were included as untreated controls. Plasma samples and tissues, i.e., adrenal glands, hearth, kidney, liver, lung, lymph nodes, spleen, ovaries, thymus, and skeletal muscle were collected at 4, 24, 48, 72 and 96 h after administration by animals killed by exsanguination under sodium thiopental anesthesia. Blood was put in heparinized plastic tubes kept on ice-water bath, then centrifuged (10 min, 1200 rpm, +4 °C). One aliquot of about 100 µL of plasma was stored at –80 °C until analysis. Samples of selected organs/tissues were collected, put in plastic cassettes and frozen over liquid nitrogen. Then, organs were thawed out, weighted, and sliced. Homogenates were prepared with ultrasonication on ice in Dulbecco buffer (10 μL/mg of tissue). The addition of 400 μL of methanol to 10 μL of homogenate in a 96-well plate allowed the precipitation of proteins. After capping and vortex mixing, the plate was centrifuged for 15 min at 3700 rpm at 6 °C, and an aliquot of 360 μL of supernatant transferred to a new plate and dried down under nitrogen stream (40 °C). The extract was reconstituted in 150 μL of 10 mM ammonium formate pH 3.5: methanol (90:10, v/v) and analyzed using the LC-MS-MS method, as described in Pharmacokinetic studies in rat paragraph. 1 ng/mL and 10 ng/g were the lower limits of quantitation for plasma and tissue, respectively.

Sequence of hERG K+ channel (Q12809 whole entry): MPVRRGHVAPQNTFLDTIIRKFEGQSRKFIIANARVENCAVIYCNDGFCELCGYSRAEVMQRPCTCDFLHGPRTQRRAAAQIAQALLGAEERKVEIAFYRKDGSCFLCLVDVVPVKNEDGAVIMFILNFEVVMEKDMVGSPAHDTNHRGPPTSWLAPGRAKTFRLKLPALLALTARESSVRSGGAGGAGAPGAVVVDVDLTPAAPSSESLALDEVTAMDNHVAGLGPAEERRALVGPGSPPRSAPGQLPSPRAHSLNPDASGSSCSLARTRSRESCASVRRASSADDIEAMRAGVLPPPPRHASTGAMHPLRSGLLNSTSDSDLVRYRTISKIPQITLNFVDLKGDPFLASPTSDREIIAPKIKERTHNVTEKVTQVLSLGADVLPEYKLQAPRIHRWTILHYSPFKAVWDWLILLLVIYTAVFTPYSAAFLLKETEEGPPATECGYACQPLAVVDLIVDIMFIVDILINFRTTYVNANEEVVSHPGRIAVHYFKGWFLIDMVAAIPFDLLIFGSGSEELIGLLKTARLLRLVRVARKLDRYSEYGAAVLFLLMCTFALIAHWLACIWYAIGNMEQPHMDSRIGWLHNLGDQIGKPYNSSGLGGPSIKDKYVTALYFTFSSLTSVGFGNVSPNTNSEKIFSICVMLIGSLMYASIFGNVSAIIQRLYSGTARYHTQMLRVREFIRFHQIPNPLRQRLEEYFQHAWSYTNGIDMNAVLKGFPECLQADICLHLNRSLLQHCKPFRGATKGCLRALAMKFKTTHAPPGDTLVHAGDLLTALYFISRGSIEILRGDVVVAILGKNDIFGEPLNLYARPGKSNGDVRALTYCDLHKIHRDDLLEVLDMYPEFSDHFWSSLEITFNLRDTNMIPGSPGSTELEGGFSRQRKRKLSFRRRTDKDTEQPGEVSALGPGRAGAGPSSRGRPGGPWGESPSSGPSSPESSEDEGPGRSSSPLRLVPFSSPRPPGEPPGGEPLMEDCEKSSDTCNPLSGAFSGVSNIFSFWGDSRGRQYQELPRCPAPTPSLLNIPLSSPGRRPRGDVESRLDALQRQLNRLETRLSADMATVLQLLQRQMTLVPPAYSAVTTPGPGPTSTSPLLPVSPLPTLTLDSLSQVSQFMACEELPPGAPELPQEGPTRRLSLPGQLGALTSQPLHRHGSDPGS

SMILES: Clc1ccc2c(NCC34CCCN3CCC4)ccnc2c1 [MG3, 7-Chloro-N-((hexahydro-1H-pyrrolizin-7a-yl)methyl)quinolin-4-amine]
- IC50 [1]: 14.4 nM
- AUC(0-t) (in vivo): 1030 ng·h/mL
- mutagenicity judgement [2]: non-mutagenic
- fold increase value (ratio treated/solvent revertant numbers) ([3]; I° Exp., 62.5 µg/plate): 1.4
- fold increase value (ratio treated/solvent revertant numbers) ([3]; I° Exp., 125 µg/plate): 1.4
- fold increase value (ratio treated/solvent revertant numbers) ([3]; I° Exp., 250 µg/plate): 1.5
- fold increase value (ratio treated/solvent revertant numbers) ([3]; I° Exp., 500 µg/plate): 0.8
- fold increase value (ratio treated/solvent revertant numbers) ([3]; I° Exp., 1000 µg/plate): 0.7
- fold increase value (ratio treated/solvent revertant numbers) ([3]; Range finding, 1.95 µg/plate): 1.0
- fold increase value (ratio treated/solvent revertant numbers) ([3]; Range finding, 3.9 µg/plate): 0.9
- fold increase value (ratio treated/solvent revertant numbers) ([3]; Range finding, 7.81 µg/plate): 0.9
- fold increase value (ratio treated/solvent revertant numbers) ([3]; Range finding, 15.63 µg/plate): 0.7
- fold increase value (ratio treated/solvent revertant numbers) ([3]; Range finding, 31.25 µg/plate): 0.8
- fold increase value (ratio treated/solvent revertant numbers) ([3]; Range finding, 62.5 µg/plate): 0.7
- fold increase value (ratio treated/solvent revertant numbers) ([3]; Range finding, 125 µg/plate): 0.9
- fold increase value (ratio treated/solvent revertant numbers) ([3]; Range finding, 250 µg/plate): 0.7
- fold increase value (ratio treated/solvent revertant numbers) ([3]; Range finding, 500 µg/plate): 0.7
- fold increase value (ratio treated/solvent revertant numbers) ([3]; Range finding, 1000 µg/plate): 0.8
- fold increase value (ratio treated/solvent revertant numbers) ([4]; I° Exp., 62.5 µg/plate): 0.6
- fold increase value (ratio treated/solvent revertant numbers) ([4]; I° Exp., 125 µg/plate): 0.6
- fold increase value (ratio treated/solvent revertant numbers) ([4]; I° Exp., 250 µg/plate): 0.8
- fold increase value (ratio treated/solvent revertant numbers) ([4]; I° Exp., 500 µg/plate): 0.8
- fold increase value (ratio treated/solvent revertant numbers) ([4]; I° Exp., 1000 µg/plate): 0.8
- fold increase value (ratio treated/solvent revertant numbers) ([4]; Range finding, 1.95 µg/plate): 1.1
- fold increase value (ratio treated/solvent revertant numbers) ([4]; Range finding, 3.9 µg/plate): 1.1
- fold increase value (ratio treated/solvent revertant numbers) ([4]; Range finding, 7.81 µg/plate): 1.2
- fold increase value (ratio treated/solvent revertant numbers) ([4]; Range finding, 15.63 µg/plate): 0.9
- fold increase value (ratio treated/solvent revertant numbers) ([4]; Range finding, 31.25 µg/plate): 1.0
- fold increase value (ratio treated/solvent revertant numbers) ([4]; Range finding, 62.5 µg/plate): 1.0
- fold increase value (ratio treated/solvent revertant numbers) ([4]; Range finding, 125 µg/plate): 1.0
- fold increase value (ratio treated/solvent revertant numbers) ([4]; Range finding, 250 µg/plate): 1.0
- fold increase value (ratio treated/solvent revertant numbers) ([4]; Range finding, 500 µg/plate): 1.2
- fold increase value (ratio treated/solvent revertant numbers) ([4]; Range finding, 1000 µg/plate): 0.7
- IC50 (P. falciparum 3D7 (CQ-S)): 12.6 nM
- chemical stability in incubation medium alone [5]: did not show any degradation
- Ki (hERG K+ channel): 553 ± 45 nM
- tissues with the highest concentration [6]: lungs and ovaries
- concentration in tissues versus plasma ([6]; all time points 4–96 h): higher than in plasma
- detected in all the analyzed tissues up to ([6]; post dose): 96 h
